Earlier results as cited in patent publication US7993907B2, “Biochips and method of screening using drug induced gene and protein expression profiling” (Mowycal Lending, LLC, priority 2001, dated 2011).
Where two headings read alike, the source gives them in different places. Where no end group is shown, it is not given here. The star is where a group is joined. For = O=C*

How the values were obtained:
[1] = Indication Alzheimer's Disease
[2] = examples of hazardous chemicals
[3] = Indication Osteoporosis
[4] = Indication Breast Cancer
[5] = Indication Acute Respiratory Disease
[6] = Indication Congestive Heart Failure
[7] = tested on: human peripheral blood cells; conditions: cells stimulated by pro-inflammatory agents or molecules

C[C@]12CC[C@H](O)CC1=CC[C@@H]1[C@@H]2CC[C@]2(C)C(=O)CC[C@@H]12 [DHEA]
Termination (reason drug was discontinued or terminated in FDA trials) [1]: Results were equal

CC[n+]1c(-c2ccccc2)c2cc(N)ccc2c2ccc(N)cc21 [Ethidium Bromide (EtBr), Ethidium Bromide]
Hazard [2]: Mutagen

CC/C(=C(\c1ccc(I)cc1)c1ccc(OCCN2CCCC2)cc1)c1ccccc1 [Idoxifene]
Termination (reason drug was discontinued or terminated in FDA trials) [3]: Lack of efficacy | Termination (reason drug was discontinued or terminated in FDA trials) [4]: Lack of efficacy

C[C@@H](O)CCCCn1c(=O)c2c(ncn2C)n(C)c1=O [Lisofylline]
Termination (reason drug was discontinued or terminated in FDA trials) [5]: Safety Board

ENBREL
Termination (reason drug was discontinued or terminated in FDA trials) [6]: Lack of efficacy

f-Met-Leu-Phe-Phe (For-MLFF) [HK-X]
Mechanism of action on G protein γ kinase (G protein γ kinase): inhibition of G protein γ kinase | Effect on pro-inflammatory responses of human peripheral blood cells [7]: inactivate certain pro-inflammatory responses
